According to PubChem BioAssay AID2060901 (Molecular Pharmacology Branch, DTP, NCI, 2025):
pIC50: −log10 of the molar value.

System: 422866-222-R5-J1-PDC complex spheroids viability
Assay: Anticancer human tumor 422866-222-R5-J1-PDC patient-derived pancreatic adenocarcinoma cell line growth inhibition [RAS]
Conditions: for pIC50: curve of first compound; for viability, T/C: stronger effect = lower value
How it was run: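 Agents were tested in combination matrices in half-log decrements from a top concentration at or near clinical Cmax (10 microM if undetermined). Targets were multi-cell spheroids of tumour lines plus HUVEC and MSC stromal cells.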
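Further: spheroids exposed to compounds for 7 days.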
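Wherever viability, T/C is given: 100% = DMSO vehicle control viability.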

For `CCc1c2c(nc3ccc(O)cc13)-c1cc3c(c(=O)n1C2)COC(=O)[C@]3(O)CC` + CCn1c(-c2cc(N3CCN(C)CC3)cnc2C(C)OC)c2c3cc(ccc31)-c1csc(n1)CC(NC(=O)C1CC1C)C(=O)N1CCCC(N1)C(=O)OCC(C)(C)C2, the pIC50 (second compound 0.000949 µM) was > 9.02, the pIC50 (second compound 0.003 µM) was > 9.02 and the pIC50 (second compound 0.00949 µM) was > 9.02. For the same compound, the pIC50 (second compound 0.03 µM) was > 9.02, the pIC50 (second compound 0.0949 µM) was > 9.02 and the pIC50 (second compound 0.3 µM) was > 9.02. The viability, T/C (second compound 0.000949 µM, first compound 0.000949 µM) was 25.3%, the viability, T/C (second compound 0.000949 µM, first compound 0.003 µM) was 20.3% and the viability, T/C (second compound 0.000949 µM, first compound 0.00949 µM) was 21.6%. For the same compound, the viability, T/C (second compound 0.000949 µM, first compound 0.03 µM) was 19.5%, the viability, T/C (second compound 0.000949 µM, first compound 0.0949 µM) was 17.7% and the viability, T/C (second compound 0.000949 µM, first compound 0.3 µM) was 12.6%. The viability, T/C (second compound 0.003 µM, first compound 0.000949 µM) was 22.5%, the viability, T/C (second compound 0.003 µM, first compound 0.003 µM) was 17% and the viability, T/C (second compound 0.003 µM, first compound 0.00949 µM) was 15.4%. For the same compound, the viability, T/C (second compound 0.003 µM, first compound 0.03 µM) was 16.7%, the viability, T/C (second compound 0.003 µM, first compound 0.0949 µM) was 14.1% and the viability, T/C (second compound 0.003 µM, first compound 0.3 µM) was 8.32%. The viability, T/C (second compound 0.00949 µM, first compound 0.000949 µM) was 18.9%, the viability, T/C (second compound 0.00949 µM, first compound 0.003 µM) was 14.7% and the viability, T/C (second compound 0.00949 µM, first compound 0.00949 µM) was 13.8%. For the same compound, the viability, T/C (second compound 0.00949 µM, first compound 0.03 µM) was 13.2%, the viability, T/C (second compound 0.00949 µM, first compound 0.0949 µM) was 11.3% and the viability, T/C (second compound 0.00949 µM, first compound 0.3 µM) was 7.61%. The viability, T/C (second compound 0.03 µM, first compound 0.000949 µM) was 16.6%, the viability, T/C (second compound 0.03 µM, first compound 0.003 µM) was 15.6% and the viability, T/C (second compound 0.03 µM, first compound 0.00949 µM) was 14.6%. It also gave a viability, T/C (second compound 0.03 µM, first compound 0.03 µM) of 12.8%, a viability, T/C (second compound 0.03 µM, first compound 0.0949 µM) of 10% and a viability, T/C (second compound 0.03 µM, first compound 0.3 µM) of 6.17%. For the same compound, the viability, T/C (second compound 0.0949 µM, first compound 0.000949 µM) was 17%, the viability, T/C (second compound 0.0949 µM, first compound 0.003 µM) was 15% and the viability, T/C (second compound 0.0949 µM, first compound 0.00949 µM) was 13.8%. For the same compound, the viability, T/C (second compound 0.0949 µM, first compound 0.03 µM) was 12.5%, the viability, T/C (second compound 0.0949 µM, first compound 0.0949 µM) was 9.66% and the viability, T/C (second compound 0.0949 µM, first compound 0.3 µM) was 6.78%. It also gave a viability, T/C (second compound 0.3 µM, first compound 0.000949 µM) of 16.2%, a viability, T/C (second compound 0.3 µM, first compound 0.003 µM) of 15.7% and a viability, T/C (second compound 0.3 µM, first compound 0.00949 µM) of 16.8%. It also gave a viability, T/C (second compound 0.3 µM, first compound 0.03 µM) of 12.8%, a viability, T/C (second compound 0.3 µM, first compound 0.0949 µM) of 10.1% and a viability, T/C (second compound 0.3 µM, first compound 0.3 µM) of 5.7%.
With `O=C(c1ccc(F)c(F)c1Nc1ccc(I)cc1F)N1CC(O)([C@@H]2CCCCN2)C1` + CCn1c(-c2cccnc2C(C)OC)c2c3cc(ccc31)N1CCOC(CC(NC(=O)C(C(C)C)N(C)C(=O)C3(F)CCN(C(=O)C#CC(C)(C)N(C)C)CC3)C(=O)N3CCCC(N3)C(=O)OCC(C)(C)C2)C1 the pIC50 (second compound 0.000949 µM) was > 8.50, the pIC50 (second compound 0.003 µM) was > 8.50 and the pIC50 (second compound 0.00949 µM) was > 8.50. For the same compound, the pIC50 (second compound 0.03 µM) was > 8.50, the pIC50 (second compound 0.0949 µM) was > 8.50 and the pIC50 (second compound 0.3 µM) was > 8.50. It also gave a viability, T/C (second compound 0.000949 µM, first compound 0.00316 µM) of 27.1%, a viability, T/C (second compound 0.000949 µM, first compound 0.01 µM) of 26.5% and a viability, T/C (second compound 0.000949 µM, first compound 0.0316 µM) of 21.4%. For the same compound, the viability, T/C (second compound 0.000949 µM, first compound 0.1 µM) was 16.9%, the viability, T/C (second compound 0.000949 µM, first compound 0.316 µM) was 14.8% and the viability, T/C (second compound 0.000949 µM, first compound 1 µM) was 14%. The viability, T/C (second compound 0.003 µM, first compound 0.00316 µM) was 23.4%, the viability, T/C (second compound 0.003 µM, first compound 0.01 µM) was 17.8% and the viability, T/C (second compound 0.003 µM, first compound 0.0316 µM) was 16.9%. For the same compound, the viability, T/C (second compound 0.003 µM, first compound 0.1 µM) was 12.3%, the viability, T/C (second compound 0.003 µM, first compound 0.316 µM) was 10.9% and the viability, T/C (second compound 0.003 µM, first compound 1 µM) was 11.7%. It also gave a viability, T/C (second compound 0.00949 µM, first compound 0.00316 µM) of 26.2%, a viability, T/C (second compound 0.00949 µM, first compound 0.01 µM) of 19.9% and a viability, T/C (second compound 0.00949 µM, first compound 0.0316 µM) of 16.2%. The viability, T/C (second compound 0.00949 µM, first compound 0.1 µM) was 14.1%, the viability, T/C (second compound 0.00949 µM, first compound 0.316 µM) was 11.1% and the viability, T/C (second compound 0.00949 µM, first compound 1 µM) was 9.8%. The viability, T/C (second compound 0.03 µM, first compound 0.00316 µM) was 19.6%, the viability, T/C (second compound 0.03 µM, first compound 0.01 µM) was 15.5% and the viability, T/C (second compound 0.03 µM, first compound 0.0316 µM) was 14.3%. It also gave a viability, T/C (second compound 0.03 µM, first compound 0.1 µM) of 11.5%, a viability, T/C (second compound 0.03 µM, first compound 0.316 µM) of 11.7% and a viability, T/C (second compound 0.03 µM, first compound 1 µM) of 9.56%. For the same compound, the viability, T/C (second compound 0.0949 µM, first compound 0.00316 µM) was 16.5%, the viability, T/C (second compound 0.0949 µM, first compound 0.01 µM) was 13.1% and the viability, T/C (second compound 0.0949 µM, first compound 0.0316 µM) was 13%. It also gave a viability, T/C (second compound 0.0949 µM, first compound 0.1 µM) of 9.14%, a viability, T/C (second compound 0.0949 µM, first compound 0.316 µM) of 11.8% and a viability, T/C (second compound 0.0949 µM, first compound 1 µM) of 10.4%. The viability, T/C (second compound 0.3 µM, first compound 0.00316 µM) was 15.7%, the viability, T/C (second compound 0.3 µM, first compound 0.01 µM) was 13.3% and the viability, T/C (second compound 0.3 µM, first compound 0.0316 µM) was 10.9%. The viability, T/C (second compound 0.3 µM, first compound 0.1 µM) was 9.97%, the viability, T/C (second compound 0.3 µM, first compound 0.316 µM) was 12.4% and the viability, T/C (second compound 0.3 µM, first compound 1 µM) was 12.1%.
